Reference: publication PMC2229623 (The Journal of General Physiology, 2004)

Key:
CFTR [1] = molecular target: T1, CFTR (Homo sapiens, UniProt P13569); experiment: Apical Cl− current in CFTR-expressing FRT cells; format: cell-based; settings: for Ki: Ki is compound concentration giving 50% inhibition of apical membrane Cl− current in CFTR-expressing FRT cells; for % inhibition at 50 μM: apical membrane Cl− current, FRT cells
MDR-1 = MDR-1 (Homo sapiens, UniProt P08183); experiment: Rhodamine 123 uptake in cells overexpressing MDR-1; format: cell-based; settings: 100 μM
MDR-1, sequence (P08183 whole entry): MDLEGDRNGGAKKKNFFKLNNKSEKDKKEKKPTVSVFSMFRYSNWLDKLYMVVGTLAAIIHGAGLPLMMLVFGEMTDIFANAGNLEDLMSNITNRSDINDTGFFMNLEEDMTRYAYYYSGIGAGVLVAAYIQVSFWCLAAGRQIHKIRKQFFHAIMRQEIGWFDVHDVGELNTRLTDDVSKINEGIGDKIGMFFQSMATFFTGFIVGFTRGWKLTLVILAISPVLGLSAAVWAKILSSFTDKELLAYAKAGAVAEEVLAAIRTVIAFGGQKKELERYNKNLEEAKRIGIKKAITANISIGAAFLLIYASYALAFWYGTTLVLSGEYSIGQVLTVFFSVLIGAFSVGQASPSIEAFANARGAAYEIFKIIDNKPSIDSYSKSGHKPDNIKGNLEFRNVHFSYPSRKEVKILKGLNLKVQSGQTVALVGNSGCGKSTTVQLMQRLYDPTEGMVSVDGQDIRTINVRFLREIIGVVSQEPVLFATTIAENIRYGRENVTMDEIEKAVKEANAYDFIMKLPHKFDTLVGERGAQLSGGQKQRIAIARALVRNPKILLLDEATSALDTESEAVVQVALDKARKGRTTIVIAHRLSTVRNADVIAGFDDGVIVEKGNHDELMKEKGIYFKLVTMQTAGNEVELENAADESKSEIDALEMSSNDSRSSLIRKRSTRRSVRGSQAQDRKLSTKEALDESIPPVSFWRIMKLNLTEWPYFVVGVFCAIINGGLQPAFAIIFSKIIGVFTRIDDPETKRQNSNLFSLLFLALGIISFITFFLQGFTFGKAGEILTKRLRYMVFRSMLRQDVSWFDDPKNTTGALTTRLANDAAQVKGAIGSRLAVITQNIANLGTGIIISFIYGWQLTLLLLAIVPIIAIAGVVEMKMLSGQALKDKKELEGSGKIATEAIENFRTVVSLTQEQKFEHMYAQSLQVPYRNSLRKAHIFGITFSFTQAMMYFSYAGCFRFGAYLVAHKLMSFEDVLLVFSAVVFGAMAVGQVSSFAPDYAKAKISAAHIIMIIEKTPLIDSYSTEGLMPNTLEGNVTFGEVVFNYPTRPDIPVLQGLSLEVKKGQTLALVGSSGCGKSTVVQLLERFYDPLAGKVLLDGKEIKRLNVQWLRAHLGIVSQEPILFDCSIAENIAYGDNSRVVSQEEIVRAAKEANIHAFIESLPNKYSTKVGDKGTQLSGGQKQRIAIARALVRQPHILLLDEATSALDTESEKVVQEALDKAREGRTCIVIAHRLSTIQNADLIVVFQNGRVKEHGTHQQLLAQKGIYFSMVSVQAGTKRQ

CFTR [2] = molecular target: T1, CFTR; settings: read-out: concentration giving 50% inhibition of CFTR Cl− channel function; intact cells, depending on cell type and membrane potential; ref Ma et al., 2002a; Taddei et al., 2004; cited from earlier work
CFTR [3] = format: in vivo; settings: 100 μM in all solutions; mice

T1 sequence (P13569 whole entry): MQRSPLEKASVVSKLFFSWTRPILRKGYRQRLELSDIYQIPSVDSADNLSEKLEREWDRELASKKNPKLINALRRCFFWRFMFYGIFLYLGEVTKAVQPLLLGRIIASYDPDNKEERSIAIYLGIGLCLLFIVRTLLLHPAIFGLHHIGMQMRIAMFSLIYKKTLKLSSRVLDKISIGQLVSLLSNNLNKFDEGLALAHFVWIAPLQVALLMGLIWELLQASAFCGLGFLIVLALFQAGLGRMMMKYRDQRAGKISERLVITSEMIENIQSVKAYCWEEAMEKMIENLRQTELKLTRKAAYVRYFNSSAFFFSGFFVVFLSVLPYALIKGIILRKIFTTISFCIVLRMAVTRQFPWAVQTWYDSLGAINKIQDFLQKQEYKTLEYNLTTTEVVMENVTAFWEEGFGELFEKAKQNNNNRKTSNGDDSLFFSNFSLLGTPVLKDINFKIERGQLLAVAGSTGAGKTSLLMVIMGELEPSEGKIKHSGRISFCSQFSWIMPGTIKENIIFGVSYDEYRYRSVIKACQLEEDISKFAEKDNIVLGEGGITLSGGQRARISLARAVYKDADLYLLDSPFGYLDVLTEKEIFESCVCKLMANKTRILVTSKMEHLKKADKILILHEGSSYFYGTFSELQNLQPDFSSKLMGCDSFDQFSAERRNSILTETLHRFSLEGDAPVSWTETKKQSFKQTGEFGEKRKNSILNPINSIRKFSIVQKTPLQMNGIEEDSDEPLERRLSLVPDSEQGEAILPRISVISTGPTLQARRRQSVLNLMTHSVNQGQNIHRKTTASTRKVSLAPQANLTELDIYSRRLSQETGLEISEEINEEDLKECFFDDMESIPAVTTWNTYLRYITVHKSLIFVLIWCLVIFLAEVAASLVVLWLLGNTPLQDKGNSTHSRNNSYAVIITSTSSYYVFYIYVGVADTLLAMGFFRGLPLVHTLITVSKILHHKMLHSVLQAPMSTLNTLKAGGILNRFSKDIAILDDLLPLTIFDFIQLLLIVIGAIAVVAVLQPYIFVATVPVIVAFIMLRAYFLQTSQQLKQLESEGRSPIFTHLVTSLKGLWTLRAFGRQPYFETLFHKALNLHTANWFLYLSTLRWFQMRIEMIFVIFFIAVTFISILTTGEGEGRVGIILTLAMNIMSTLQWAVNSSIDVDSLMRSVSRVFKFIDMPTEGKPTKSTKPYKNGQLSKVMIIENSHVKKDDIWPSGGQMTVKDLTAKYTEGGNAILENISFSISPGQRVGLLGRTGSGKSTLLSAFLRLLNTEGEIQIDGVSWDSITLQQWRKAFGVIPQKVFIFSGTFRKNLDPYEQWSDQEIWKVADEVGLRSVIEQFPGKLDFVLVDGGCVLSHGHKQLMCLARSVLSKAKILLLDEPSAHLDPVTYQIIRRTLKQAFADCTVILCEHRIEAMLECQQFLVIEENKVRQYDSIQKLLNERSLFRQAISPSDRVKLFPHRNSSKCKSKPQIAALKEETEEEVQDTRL

## O=C(NN=Cc1cc(Br)c(O)c(Br)c1O)C(=O)Nc1ccc2ccccc2c1 [OxaH-203]
CFTR [1]
  Ki: > 50 µM

## O=C(CNc1ccc2ccccc2c1)NNC(=O)c1cc(Br)c(O)c(Br)c1 [GlyH-202, 3,5-Dibromo-4-hydroxy-[2-(2-naphthalenamine)aceto] Benzoic Acid Hydrazide]
CFTR [1]
  % inhibition at 50 μM: 57%
  Ki: 22 µM

## COc1ccc(CCN(C)CCCC(C#N)(c2ccc(OC)c(OC)c2)C(C)C)cc1OC (stereo not shown) [verapamil]
MDR-1
  increase of rhodamine 123 incorporation: greater than fivefold

## O=C(COc1ccc2ccccc2c1)NN=Cc1cc(Br)c(O)c(Br)c1 [AceH-402]
CFTR [1]
  % inhibition at 50 μM: 86%
  Ki: 17 µM

## O=C(O)c1ccc(/C=C2\SC(=S)N(c3cccc(C(F)(F)F)c3)C2=O)cc1 [CFTRinh-172]
CFTR [2]
  IC50: 0.3 to 3 µM

## O=C(NNCc1cc(Br)c(O)c(Br)c1O)C(=O)Nc1ccc2ccccc2c1 [OxaH-303]
CFTR [1]
  % inhibition at 50 μM: 70%
  Ki: 10 µM

## CC(=NNC(=O)CNc1ccc2ccccc2c1)c1cc(Br)c(O)c(Br)c1 [GlyH-109]
CFTR [1]
  Ki: 4.7 µM

## O=C(CNc1ccc(Cl)cc1)NN=Cc1cc(Br)c(O)c(Br)c1 [GlyH-114]
CFTR [1]
  Ki: 5 µM

## O=C(COc1ccc2ccccc2c1)NN=Cc1cc(Br)c(O)c(Br)c1O [AceH-401]
CFTR [1]
  % inhibition at 50 μM: 84%
  Ki: 21 µM

## O=C(CNc1cccc2ccccc12)NN=Cc1ccc(O)c(Br)c1 [GlyH-118]
CFTR [1]
  Ki: 25 to 50 µM

## O=C(NNCc1cc(Br)c(O)c(Br)c1)C(=O)Nc1ccc2ccccc2c1 [OxaH-304]
CFTR [1]
  % inhibition at 50 μM: 78%
  Ki: 12 µM

## O=C(CNc1ccc(Cl)cc1)NN=Cc1cc(Br)c(O)c(Br)c1O [GlyH-115]
CFTR [1]
  Ki: 6.7 µM

## O=C(NNC(=O)c1cc(Br)c(O)c(Br)c1)C(=O)Nc1ccc2ccccc2c1 [OxaH-204]
CFTR [1]
  Ki: > 50 µM

## O=C(CNc1ccc(Cl)cc1)NN=Cc1ccc(O)cc1O [GlyH-123]
CFTR [1]
  Ki: 25 to 50 µM

## O=C(CNc1ccc2cc3ccccc3cc2c1)NN=Cc1cc(Br)c(O)c(Br)c1 [GlyH-125]
CFTR [1]
  Ki: 25 to 50 µM

## Cc1ccc(NCC(=O)NN=Cc2cc(Br)c(O)c(Br)c2O)cc1 [GlyH-116]
CFTR [1]
  Ki: 10 µM

## O=C(CNc1ccc2ccccc2c1)NN=Cc1ccc(Br)cc1 [GlyH-120]
CFTR [1]
  Ki: 25 to 50 µM

## O=S(=O)(O)c1cc(N=C=S)ccc1C=Cc1ccc(N=C=S)cc1S(=O)(=O)O [DIDS]
CFTR [3]
  inhibition of the (CFTR-independent) hyperpolarization produced by low Cl−: partial inhibition

## CC(=NNC(=O)C(=O)Nc1ccc2ccccc2c1)c1cc(Br)c(O)c(Br)c1O [OxaH-112]
CFTR [1]
  Ki: 3 µM

## O=C(CNc1ccc2cc3ccccc3cc2c1)NN=Cc1cc(Br)c(O)c(Br)c1O [GlyH-124]
CFTR [1]
  Ki: 25 to 50 µM

## Cc1ccccc1NCC(=O)NN=Cc1cc(Br)c(O)c(Br)c1O [GlyH-117]
CFTR [1]
  Ki: 25 to 50 µM

## COc1c(Br)cc(C=NNC(=O)CNc2ccc3ccccc3c2)c(O)c1Br [GlyH-103]
CFTR [1]
  % inhibition at 50 μM: 56%
  Ki: 20 µM
